# Results published in ChEMBL document CHEMBL2074246, “Distinct groups of multidrug resistance modulating agents are distinguished by competition of P-glycoprotein-specific antibodies” (Biochem Biophys Res Commun, 2004).
# *1 amine or outer side, *2 acyl side, *3 side chain or, on linkers, in order; H or OH if unused. Where a SMILES comes first, the peptide text is derived from it. Bridges are numbered along the chain shown (N, C = ends). Roman numbers before positions name the chains, in order. [ ]: non-standard residue; d: D form. The star is where a group is joined. Actinocin(9to1) = Cc1c2oc3c(C)ccc(C(=O)[*:1])c3nc-2c(C(=O)[*:2])c(N)c1=O; NMeV = CN[C@H](C(=O)O)C(C)C; NHCH2CH2OH = OCCN*; Sar = CNCC(=O)O; For = O=C*
# What was measured:
# Assay type in all cases: functional, cell-based
# [1] = target: T1, ATP-dependent translocase ABCB1 (Homo sapiens, UniProt P08183); assay: TP_TRANSPORTER: increase in Calcein-AM intracellular accumulation (Calcein-AM: 0.5uM, Nonidet P-40:6x10-4a%) in MDR1-expressing NIH-3T3 cells; conditions: mouse, nih3t3
# T1 sequence (P08183 whole entry): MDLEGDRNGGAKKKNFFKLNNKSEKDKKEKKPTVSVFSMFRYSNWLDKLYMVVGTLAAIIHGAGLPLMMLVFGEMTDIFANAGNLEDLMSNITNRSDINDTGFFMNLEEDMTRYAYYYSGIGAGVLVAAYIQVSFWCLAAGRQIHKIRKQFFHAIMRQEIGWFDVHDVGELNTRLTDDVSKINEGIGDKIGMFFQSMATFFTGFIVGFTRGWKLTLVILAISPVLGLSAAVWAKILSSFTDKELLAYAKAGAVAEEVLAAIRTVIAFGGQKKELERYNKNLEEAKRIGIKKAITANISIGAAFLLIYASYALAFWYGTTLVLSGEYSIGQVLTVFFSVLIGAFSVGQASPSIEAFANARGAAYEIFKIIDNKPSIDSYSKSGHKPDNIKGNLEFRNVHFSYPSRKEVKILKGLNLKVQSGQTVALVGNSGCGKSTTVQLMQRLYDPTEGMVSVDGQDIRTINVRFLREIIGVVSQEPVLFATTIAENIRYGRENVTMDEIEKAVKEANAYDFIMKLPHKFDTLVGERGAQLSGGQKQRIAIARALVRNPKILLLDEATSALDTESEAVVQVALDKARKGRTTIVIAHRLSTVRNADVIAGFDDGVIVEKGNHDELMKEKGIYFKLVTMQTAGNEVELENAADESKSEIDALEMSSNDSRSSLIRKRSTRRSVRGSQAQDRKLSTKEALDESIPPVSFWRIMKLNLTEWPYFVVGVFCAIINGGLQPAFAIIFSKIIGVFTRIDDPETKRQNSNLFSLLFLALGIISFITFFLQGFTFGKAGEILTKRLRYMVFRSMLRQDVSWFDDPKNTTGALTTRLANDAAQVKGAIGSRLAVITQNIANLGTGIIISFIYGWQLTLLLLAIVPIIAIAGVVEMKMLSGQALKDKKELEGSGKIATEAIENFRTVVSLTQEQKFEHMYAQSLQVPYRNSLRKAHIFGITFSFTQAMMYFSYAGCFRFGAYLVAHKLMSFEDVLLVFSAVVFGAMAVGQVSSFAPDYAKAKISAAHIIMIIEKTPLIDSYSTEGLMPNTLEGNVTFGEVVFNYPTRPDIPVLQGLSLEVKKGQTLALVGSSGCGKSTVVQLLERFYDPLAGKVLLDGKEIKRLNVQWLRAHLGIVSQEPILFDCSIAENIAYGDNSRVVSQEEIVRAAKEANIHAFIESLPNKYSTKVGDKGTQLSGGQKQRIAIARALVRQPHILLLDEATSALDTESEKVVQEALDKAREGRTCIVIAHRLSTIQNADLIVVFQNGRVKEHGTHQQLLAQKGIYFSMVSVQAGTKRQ
# [2] = target: T1, ATP-dependent translocase ABCB1; assay: TP_TRANSPORTER: increase in Calcein-AM intracellular accumulation (Calcein-AM: 0.5 uM, Hoechst 33342: 50 uM) in MDR1-expressing NIH-3T3 cells; conditions: mouse, nih3t3, 50 µM
# [3] = target: T1, ATP-dependent translocase ABCB1; assay: TP_TRANSPORTER: increase in Calcein-AM intracellular accumulation (Calcein-AM: 0.5 uM, m-Amsacrine: 5 uM) in MDR1-expressing NIH-3T3 cells; conditions: mouse, nih3t3, 5 µM
# [4] = target: T1, ATP-dependent translocase ABCB1; assay: TP_TRANSPORTER: increase in Calcein-AM intracellular accumulation (Calcein-AM: 0.5 uM, Benzocaine: 20 uM) in MDR1-expressing NIH-3T3 cells; conditions: mouse, nih3t3, 20 µM
# [5] = target: T1, ATP-dependent translocase ABCB1; assay: TP_TRANSPORTER: increase in Calcein-AM intracellular accumulation (Calcein-AM: 0.5 uM, Colchicine: 100 uM) in MDR1-expressing NIH-3T3 cells; conditions: mouse, nih3t3, 100 µM
# [6] = target: T1, ATP-dependent translocase ABCB1; assay: TP_TRANSPORTER: increase in Calcein-AM intracellular accumulation (Calcein-AM: 0.5 uM, Actinomycin D: 40 uM) in MDR1-expressing NIH-3T3 cells; conditions: mouse, nih3t3, 40 µM
# [7] = target: T1, ATP-dependent translocase ABCB1; assay: TP_TRANSPORTER: increase in Calcein-AM intracellular accumulation (Calcein-AM: 0.5 uM, Desipramine: 20 uM) in MDR1-expressing NIH-3T3 cells; conditions: mouse, nih3t3, 20 µM
# [8] = target: T1, ATP-dependent translocase ABCB1; assay: TP_TRANSPORTER: increase in Calcein-AM intracellular accumulation (Calcein-AM: 0.5 uM, Galangin: 50 uM) in MDR1-expressing NIH-3T3 cells; conditions: mouse, nih3t3, 50 µM
# [9] = target: T1, ATP-dependent translocase ABCB1; assay: TP_TRANSPORTER: increase in Calcein-AM intracellular accumulation (Calcein-AM: 0.5 uM, Genistein: 40 uM) in MDR1-expressing NIH-3T3 cells; conditions: mouse, nih3t3, 40 µM
# [10] = target: T1, ATP-dependent translocase ABCB1; assay: TP_TRANSPORTER: increase in Calcein-AM intracellular accumulation (Calcein-AM: 0.5 uM, Gramicidin D: 10 uM) in MDR1-expressing NIH-3T3 cells; conditions: mouse, nih3t3, 10 µM
# [11] = target: T1, ATP-dependent translocase ABCB1; assay: TP_TRANSPORTER: increase in Calcein-AM intracellular accumulation (Calcein-AM: 0.5 uM, Haloperidol: 80 uM) in MDR1-expressing NIH-3T3 cells; conditions: mouse, nih3t3, 80 µM
# [12] = target: T1, ATP-dependent translocase ABCB1; assay: TP_TRANSPORTER: increase in Calcein-AM intracellular accumulation (Calcein-AM: 0.5 uM, Imipramine: 20 uM) in MDR1-expressing NIH-3T3 cells; conditions: mouse, nih3t3, 20 µM
# [13] = target: T1, ATP-dependent translocase ABCB1; assay: TP_TRANSPORTER: increase in Calcein-AM intracellular accumulation (Calcein-AM: 0.5 uM, Lidocaine: 20 uM) in MDR1-expressing NIH-3T3 cells; conditions: mouse, nih3t3, 20 µM
# [14] = target: T1, ATP-dependent translocase ABCB1; assay: TP_TRANSPORTER: increase in Calcein-AM intracellular accumulation (Calcein-AM: 0.5 uM, Mibefradil: 18 uM) in MDR1-expressing NIH-3T3 cells; conditions: mouse, nih3t3, 18 µM
# [15] = target: T1, ATP-dependent translocase ABCB1; assay: TP_TRANSPORTER: increase in Calcein-AM intracellular accumulation (Calcein-AM: 0.5 uM, Mitomycin C: 20 uM) in MDR1-expressing NIH-3T3 cells; conditions: mouse, nih3t3, 20 µM
smiles,measurement,setting,value
CC(C)(C)CC(C)(C)c1ccc(OCCOCCO)cc1,Activity,[1],inhibitor [+]
CCOc1ccc(-c2nc3cc(-c4nc5cc(N6CCN(C)CC6)ccc5[nH]4)ccc3[nH]2)cc1,Activity,[2],is not an inhibitor [-]
COc1cc(NS(C)(=O)=O)ccc1Nc1c2ccccc2nc2ccccc12 [AMSACRINE],Activity,[3],inhibitor [+]
CCOC(=O)c1ccc(N)cc1 [BENZOCAINE],Activity,[4],inhibitor [+]
COc1cc2c(c(OC)c1OC)-c1ccc(OC)c(=O)cc1[C@@H](NC(C)=O)CC2 [COLCHICINE],Activity,[5],is not an inhibitor [-]
"Cc1c2oc3c(C)ccc(C(=O)N[C@@H]4C(=O)N[C@H](C(C)C)C(=O)N5CCC[C@H]5C(=O)N(C)CC(=O)N(C)[C@@H](C(C)C)C(=O)O[C@@H]4C)c3nc-2c(C(=O)N[C@@H]2C(=O)N[C@H](C(C)C)C(=O)N3CCC[C@H]3C(=O)N(C)CC(=O)N(C)[C@@H](C(C)C)C(=O)O[C@@H]2C)c(N)c1=O [DACTINOMYCIN] (I: T[dV]P[Sar][NMeV] / II: T[dV]P[Sar][NMeV]; ester I:1-I:C, II:1-II:C; linker I:N-II:N via Actinocin(9to1))",Activity,[6],inhibitor [+]
CNCCCN1c2ccccc2CCc2ccccc21 [DESIPRAMINE],Activity,[7],inhibitor [+]
O=c1c(O)c(-c2ccccc2)oc2cc(O)cc(O)c12 [GALANGIN],Activity,[8],inhibitor [+]
O=c1c(-c2ccc(O)cc2)coc2cc(O)cc(O)c12 [GENISTEIN],Activity,[9],inhibitor [+]
CC(C)C[C@@H](NC(=O)[C@H](C)NC(=O)CNC(=O)[C@@H](NC=O)C(C)C)C(=O)N[C@@H](C)C(=O)N[C@@H](C(=O)N[C@H](C(=O)N[C@@H](C(=O)N[C@@H](Cc1c[nH]c2ccccc12)C(=O)N[C@H](CC(C)C)C(=O)N[C@@H](Cc1c[nH]c2ccccc12)C(=O)N[C@H](CC(C)C)C(=O)N[C@@H](Cc1c[nH]c2ccccc12)C(=O)N[C@H](CC(C)C)C(=O)N[C@@H](Cc1c[nH]c2ccccc12)C(=O)NCCO)C(C)C)C(C)C)C(C)C [GRAMICIDIN D] (For-VGA[dL]A[dV]V[dV]W[dL]W[dL]W[dL]W-NHCH2CH2OH),Activity,[10],is not an inhibitor [-]
O=C(CCCN1CCC(O)(c2ccc(Cl)cc2)CC1)c1ccc(F)cc1 [HALOPERIDOL],Activity,[11],inhibitor [+]
CN(C)CCCN1c2ccccc2CCc2ccccc21 [IMIPRAMINE],Activity,[12],inhibitor [+]
CCN(CC)CC(=O)Nc1c(C)cccc1C [LIDOCAINE],Activity,[13],is not an inhibitor [-]
COCC(=O)O[C@]1(CCN(C)CCCc2nc3ccccc3[nH]2)CCc2cc(F)ccc2[C@@H]1C(C)C [MIBEFRADIL],Activity,[14],inhibitor [+]
CO[C@@]12[C@H](COC(N)=O)C3=C(C(=O)C(C)=C(N)C3=O)N1C[C@@H]1N[C@@H]12 [MITOMYCIN],Activity,[15],is not an inhibitor [-]
